# Where two headings read alike, the source gives them in different places.
# What was measured:
# [1] = Serum liver and muscle enzymes (ALT, AST, AP, LDH, CPK) and myotoxicity after dermal lovastatin; conditions: for ALT / AP / AST / CPK / LDH: end of 5 day treatment
# Procedure: (§1) Blood samples were obtained at the end of the five day treatment for determination of liver and muscle enzymes (alanine aminotransferase (ALT), aspartate aminotransferase (AST), alkaline phosphatase (AP), and lactic dehydrogenase (LDH) by radioimmunoassays (Esoterix, San Antonio, Tex.). Kinetic quantitative determination of […] (CPK) in serum was estimated using a kit from Stanbio Laboratory (Boerne, Tex.). The concentration of osteocalcin was measured using a sandwich ELISA assay supplied by from Biomedical Technologies Inc.
# Three-month old virgin female Sprague Dawley rats were purchased from Harlan Laboratories, LTD (Indianapolis, Ind.). Experiments were performed using either intact, bilaterally ovariectomized (OVX) or sham-operated (SHAM) rats with treatment starting 5 days after surgery in the latter groups. Rats were weight-matched and divided into treatment groups (n=10). Compounds were administered by daily transdermal application for 5 days only or 5 days/week for 5 weeks when specified. Animals were pair-fed throughout the experimental period and weekly body weights determined and dosage adjusted accordingly. At the completion of the experiment, animals were anesthetized with a ketamine (10 mg/ml) at a dose of 100 mg/kg body weight and euthanized by cervical dislocation.
# [2] = system: ovariectomized (OVX) rats; experiment: Effects of transdermal lovastatin on bone in ovariectomized rats (histomorphometry); type: in vivo, rat
# Procedure: (§2) Following sacrifice, both femurs and tibiae were removed, cleaned of soft tissue, fixed in 10% formalin for 48 hours, and then stored in 70% ETOH and prepared for histology. Histomorphometric analysis was performed using a semiautomated Osteomeasure System (Osteometrics, Inc., Atlanta, Ga.) and digitizing pad and by following standard histomorphometric techniques. Bone volume, trabecular number, thickness and separation, cell number and dynamic parameters were determined as described previously by Parfitt et al. [Parfitt A M (1988) Bone histomorphometry: standardization of nomenclature, symbols and units. Summary of proposed system. J Bone Miner Res 4:1-5.]. Bone formation rates (BFR) and mineral apposition rates (MAR) were measured in plastic-embedded sections following demeclocycline and calcein injections (15 and 20 mg/kg/body weight respectively) given intraperitoneally at 10 and 4 days before sacrifice. Values for MAR were corrected for obliquity of the plane of section in cancellous bone. Rats were evaluated with a mouse densitometer, Piximus (GE Medical Systems); bone mineral density (BMD), calculated by dividing bone mineral content (g) by the projected bone area (cm^2), was assessed for the proximal third of the tibia at time 0 and at 5 weeks. Micro-computed tomography (μ-CT) analysis of the rat distal femur was kindly performed by Phil Salmon (Skyscan, Belgium). Bones were scanned using the Skyscan Model 1072 employing an x-ray tube voltage of 100 kV, and magnified to attain a pixel size of 10.13 μm. Data are expressed as the mean standard error (SEM). Statistical differences between groups were evaluated with one-way analysis of variance (ANOVA). […] P<0.05 were considered significant.
# osteocalcin = experiment: Serum osteocalcin (sandwich ELISA) in OVX rats; type: in vivo, rat; conditions: dermal gel 0.01 mg/kg/day for 5 days, day 26
# Procedure: as §1
# [3] = Plasma lovastatin by mass spectroscopy after local nanobeads; type: in vivo, rat; conditions: any of the dosed groups, end of the experiment
# Procedure: Plasma was taken from the rats 3 hrs after the last dose and the lovastatin was measured by mass spectroscopy.
# [4] = Plasma lovastatin by mass spectroscopy, fracture Experiment 2; type: in vivo; conditions: rat, 3 hrs after the last dose, read-out: Plasma lovastatin level
# Procedure: Plasma was taken from the rats 3 hrs after the last dose and the lovastatin was measured by mass spectroscopy. […] Effective plasma levels from transdermal administration is on the order of 2-3 ng/ml.
# rat femur = experiment: Biomechanical testing of intact femurs (three point bending); type: in vivo
# Procedure: Three month old rats were dosed with vehicle or transdermal lovastatin, 1 mg/kg/day for 5 days. Four weeks after dosing, rats were euthanized and femurs removed and stored frozen. Samples were thawed to room temperature on the day of testing, and remaining soft tissue was removed. To obtain mechanical properties, the femurs were subjected to three point bending with an EnduraTEC mechanical testing system (Elf 3300, Bose Corporation, Minnetonka, Minn.). Each rat femur was horizontally positioned on the support rollers (which were 12 mm apart) such that the vertical, rounded indenter loaded the femur with the medial side in front and the anterior side down (i.e., bending occurred about the medial-lateral axis). The force-displacement curve was recorded as the indenter traveled at rate of 3 mm/min into femur midshaft. Structural properties were obtained directly from the load deformation curves.
# neonatal murine calvaria = experiment: Neonatal murine calvarial explant culture, bone and cartilage formation; type: cell-based, mouse
# Procedure: Four day old calvarial explant cultures were incubated with media containing scaffold material that releases 0, 0.4 or 8 μg/day. The extent of new cartilage is then quantitated by imaging analysis.
# Experimental Design Four day old Swiss white pups were employed as they are generally a healthy mouse strain. Calvaria from 4-day old Swiss white mouse pup mice were dissected out and cut in half. The excised hemi-calvariae were placed on metal grids (at the surface) in 1 ml BGJ media with Fitton-Jackson modification BGJ media (Sigma) containing 0.1% BSA with glutamine. The bones are incubated at 37° C. in a 5% humidified incubator for a period of 24 h and then transferred to wells containing 1 ml media with test compounds and further incubated under the above conditions for 72-96 h. The bones are then removed, fixed in 10% buffered formalin for 24 h, decalcified in 14% EDTA overnight, embedded in paraffin and 4 μm-thick sections cut and stained with H&E.
# Dosing. […] Calvaria are removed at day 7 and day 14. The media is changed every 3 days. Cartilage formation is assessed histologically.
# [5] = poly(DL-lactide) nanoparticles
# Procedure: The test material is lovastatin in nanoparticles prepared as described above. […] The test articles are nanoparticles with and without lovastatin. […] The lovastatin levels are determined by HPLC and the release curved is followed throughout the experiment.
# intact rats = experiment: Effects of transdermal lovastatin on bone in intact rats (BMD, histomorphometry, μCT); type: in vivo, rat; conditions: for Increase in bone volume, proximal tibial metaphysis: dermal, hydrophilic petrolatum, 4 weeks after treatment
# Procedure: as §2
# femur fracture model = experiment: Femur fracture model, systemically delivered lovastatin (radiographs, biomechanics); type: in vivo, rat
# [6] = dermal, hydrophilic petrolatum, 1 mg/kg/day
# [7] = dermal, hydrophilic petrolatum, 5 mg/kg/day
# [8] = aqueous alkanolic gel, lowest dose tested
# [9] = transdermal 1 mg/kg/day for 5 days, femurs four weeks after dosing
# [10] = transdermal 1 and 5 mg/kg/day for 5 days
smiles,measurement,setting,value
CC[C@H](C)C(=O)O[C@H]1C[C@@H](C)C=C2C=C[C@H](C)[C@H](CC[C@@H]3C[C@@H](O)CC(=O)O3)[C@H]21 [lovastatin],"Change in liver and muscle skeletal tissue enzymes (AST, ALT, AP, LDH, CPK)","[1]; dermal, aqueous alkanolic gel, 0.01 to 0.5 mg/kg/day, end of treatment, sham/ovx rats",No significant changes
same,ALT,[1]; [6],55 ± 3 μ/L
same,AP,[1]; [6],123 ± 6 μ/L
same,AST,[1]; [6],110 ± 4 μ/L
same,CPK,[1]; [6],441 ± 61 μ/L
same,LDH,[1]; [6],349 ± 47 μ/L
same,ALT,[1]; [7],57 ± 2 μ/L
same,AP,[1]; [7],115 ± 5 μ/L
same,AST,[1]; [7],128 ± 7 μ/L
same,CPK,[1]; [7],578 ± 45 μ/L
same,LDH,[1]; [7],528 ± 67 μ/L
same,"Change in liver and muscle enzymes (ALT, AST, AP, LDH, CPK) vs vehicle","[1]; dermal, hydrophilic petrolatum, 1 and 5 mg/kg/day, 5 days",No changes
same,"Serum creatine protein kinase (CPK), treated groups vs control","[1]; hydroalcoholic gel, 5 days, sham and ovx rats",No significant changes
same,Non-myotoxic dose (50 mg/kg/day) relative to effective dose (0.01 mg/kg),[1]; transdermal,5000 fold
same,Myotoxicity by CPK measurements and morphologic examination of skeletal muscles,"[1]; transdermal, doses up to 50 mg/kg/day",not observed
same,Effective transdermal dose as fraction of the dose required orally for an effect on bone formation,[2]; 0.01 mg/kg transdermal vs oral dose of Mundy et al. 1999,approximately 1/1000
same,Bone formation rates,"[2]; 5 days of transdermal exposure, 0.01 mg/kg body weight",markedly increased
same,Trabecular number,[2]; [8],significant increase in trabecular number
same,Trabecular separation,[2]; [8],significant decrease in trabecular separation
same,Increase in bone volume vs OVX rats treated with vehicle,"[2]; dermal 1 mg/kg/day, 5 days (FIG. 4)",50%
same,Bone formation rates (BFR),"[2]; dermal, 5 day administration (FIG. 6)",significant increase
same,"OVX-induced changes in trabecular thickness, number and separation","[2]; dermal, 5 days (FIG. 5)",partly prevented these changes
same,Bone volume by histomorphometry,"[2]; dermal, aqueous alkanolic gel, 0.01 to 0.5 mg/kg/day for 5 days, significant at 0.01 mg/kg/day",increased bone volume at all the doses tested
same,Increase in bone volume vs vehicle-treated OVX rats,"[2]; dermal, hydroalcoholic gel, 0.01 to 0.5 mg/kg/day for 5 days, proximal tibiae, four weeks after dosing",> 40%
same,Increase in bone volume vs vehicle-treated OVX rats,"[2]; dermal, hydrophilic petrolatum, 5 days, even at the lowest dose (FIG. 3b)",> 50%
same,"Cancellous bone connectivity (trabecular thickness, number, separation, star volume, fractal dimension, pattern factor)",[2]; transdermal,increased cancellous bone connectivity
same,Serum osteocalcin levels,osteocalcin,significant increase in osteocalcin levels
same,Plasma lovastatin,[3],undetectable
same,concentration at 3 h,[4]; oral 5 mg/kg/day,10 ng/mL
same,concentration at 3 h,"[4]; topical, transdermal 0.1 and 1 mg/kg/day",2 to 3 ng/mL
same,Increase in bending strength of femurs vs control,rat femur; dermal 1 mg/kg/day for 5 days,19%
same,Bending strength,rat femur; [9],165.2 ± 3 MPa
same,Maximum force,rat femur; [9],141.7 ± 3.4 N
same,Modulus of elasticity,rat femur; [9],6379.9 ± 455.1 MPa
same,Stiffness,rat femur; [9],561.3 ± 29.5 N/mm
same,Bone formation in cultures of neonatal murine calvaria,neonatal murine calvaria; 7 days after exposure,stimulates bone formation
same,Cartilage formation in cultures of neonatal murine calvaria,"neonatal murine calvaria; 14 days after exposure, scaffold release 0.4 and 0.8 μg/24 h",stimulate cartilage formation in a dose response fashion
same,Release rate of lovastatin from nanoparticles,[5],about 2 %/day
same,Bone formation rates greater than those of control rats,"intact rats; after 30 days, transdermal 5 days",more than 150%
same,Increase in bone formation rates,intact rats; dermal 5 mg/kg/day,166%
same,"Increase in bone volume, proximal tibial metaphysis",intact rats; 1 mg/kg/day for 5 days only,17%
same,"Increase in bone volume, proximal tibial metaphysis",intact rats; 5 mg/kg/day for 5 days only,33%
same,Cancellous bone volume in distal femoral metaphyses by μCT vs controls,intact rats; [10],higher cancellous bone volume
same,"Trabecular thickness, number and spacing by μCT",intact rats; [10],"increase in trabecular thickness and number, and reduced trabecular spacing"
same,Increase in BMD over vehicle-treated controls,"intact rats; weekly dermal administration, proximal tibiae, Piximus, end of five weeks",8%
same,"Maximum force to break the bones, 2.5 mg/kg vs 1 mg/kg/day","femur fracture model; Experiment 1, 5 day transdermal dose of 2.5 mg/kg, 6 weeks",lower maximum force than the 1 mg/kg/day dose
same,Radiological evaluation of fracture repair,"femur fracture model; Experiment 1, oral 10 and 25 mg/kg, six weeks",no difference between the treated and the controls
same,Radiographic score at 2 weeks,"femur fracture model; Experiment 1, oral 10 and 25 mg/kg/day",no difference from vehicle-treated controls
same,Force required to break the bone,"femur fracture model; Experiment 1, oral 10 and 25 mg/kg/day, 6 weeks",no effect
same,Radiographic score at 2 weeks,"femur fracture model; Experiment 1, transdermal 1 and 2.5 mg/kg/day",striking effect at both doses
same,"Force required to break the bone, greater than vehicle treated controls","femur fracture model; Experiment 1, transdermal, 6 weeks",42%
same,Radiological evaluation of fracture repair,"femur fracture model; Experiment 1, transdermal, week 6",complete healing by week 6
same,"Force required to break the bone, greater than vehicle-treated controls","femur fracture model; Experiment 2, TD 0.1 mg/kg/day, 6 weeks",42%
same,Maximum force to rebreak the bones,"femur fracture model; Experiment 2, TD doses higher than 0.1 mg/kg/day",reduced maximum force
same,Force required to break the bone,"femur fracture model; Experiment 2, oral 5 mg/kg/day, 6 weeks",no effect
same,Stiffness,"femur fracture model; Experiment 2, oral 5 mg/kg/day, 6 weeks after fracture",no effect
same,Most effective transdermal dose,femur fracture model; for 5 days,0.1 mg/kg/day
same,Stiffness,"femur fracture model; previous experiment (Experiment 1), oral, higher doses",increase in stiffness
same,Fracture healing (radiographic examination and biomechanical loading),femur fracture model; transdermal,accelerates fracture healing
same,Strength and stiffness of fractured bones,"femur fracture model; transdermal, even at 0.1 mg/kg/day for 5 days only",increase in both strength and stiffness
